Experimental data from patent publication EP0366451A2, “The use of oxidized polyamines, especially NN'-Bis-(3-propionaldehyde)-1-4-diaminobutane (sperminedialdehyde) as immunosuppressive agents” (ORTHO PHARMACEUTICAL CORPORATION, priority 1988, dated 1990).
“Also recorded” adds a separate entry of the source. Each block holds one molecule with its values, some of them ahead of it.

Legend:
[1] = Preliminary in vitro alkylation studies
[2] = target: T1, S-Adenosylmethionine Decarboxylase (AdoMet DC) (Mus musculus, UniProt P0DMN7); assay: AdoMet DC inhibition in L1210 cell supernatants ([14C]CO2 release); assay type: biochemical, Murine; conditions: for inhibition of AdoMet DC (in words): Fig. 9 and Figure 10
T1 construct: endogenous in cells; host or cells: murine leukemic L1210 cells (supernatant)
T1 sequence (P0DMN7 68-334 limits assumed): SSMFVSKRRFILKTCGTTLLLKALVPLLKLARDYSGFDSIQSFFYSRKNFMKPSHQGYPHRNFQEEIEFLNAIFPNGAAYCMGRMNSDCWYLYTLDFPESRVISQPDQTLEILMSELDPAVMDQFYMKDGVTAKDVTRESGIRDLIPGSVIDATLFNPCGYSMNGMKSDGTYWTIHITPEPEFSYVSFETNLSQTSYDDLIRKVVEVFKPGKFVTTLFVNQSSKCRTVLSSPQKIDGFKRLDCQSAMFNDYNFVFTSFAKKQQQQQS
T1 sequence (P0DMN7 1-67 limits assumed): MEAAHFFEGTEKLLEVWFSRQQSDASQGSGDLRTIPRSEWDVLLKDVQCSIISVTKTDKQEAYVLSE
Description: Murine leukemic L1210 cell supernatants were incubated with different concentrations of SDA or butyl dialdehyde, and AdoMet DC activity was estimated by monitoring the release of [¹⁴C] CO₂. Inhibition curves for both drugs were superimposable with IC₅₀ values of 0.12-0.13 x 10⁻³ M.

splenic T cell = assay: Concanavalin A-stimulated splenic T cell proliferation ([3H]-thymidine incorporation); assay type: cell-based, Mouse
Description: Splenic cells were treated with various concentrations of SDA or an analogue for 30 min. at 37°C. Cells were washed and cultured in the presence of Concanavalin A for 3 days. [³H] Thymidine 0.1µCi/well was added and cells were harvested after 18-24 hrs.
Mouse spleen cells were cultured for 3 days in flat bottom microtiter relates at 10⁵ cells per well in the presence of […] of Con A. 3H-thymidine (0.1 microcurie/well) was added for the last 4-6 hours of the culture period. Cells were harvested as described above.
For [³H]-thymidine incorporation, drug or vehicle treated bone marrow or spleen cells were plated in RPMI-1640, containing 10% fetal bovine serum, 10 µM β-mercaptoethanol, 25 mM HEPES and 2 mM glutamine. Con-A (4 µg/ml and […]) was used as mitogens for bone marrow and spleen cells. Three days later, [³H]-thymidine (0.2 µCi/well) was added and cells were harvested after 12-18 hrs. L1210/CPA and L1210/0 cells (0.1 - 1 x 10⁵ cells/well were plated in RPMI-1640 containing 10% horse serum. [³H]-thymidine was added after 24 hrs and cells were filtered on GF/B filter paper for scintillation counting.

[3] = test system: NADP-linked cytosolic ALDH; assay: NADP-linked cytosolic ALDH assay, L1210/CPA cells; assay type: biochemical, Murine; conditions: SDA as substrate; read-out: 50% inhibition at
Description: (§1) Cultured murine leukemic cells and livers (excised from mice immediately after cervical dislocation) were homogenized in 3 volumes of ice-cold 1.15% KCl and 1 mM EDTA. The homogenate was centrifuged at 100,000 g for 45 min and the resulting supernatant was used to measure cytosolic ALDH activity. For particulate ALDH assay, the pellet (and homogenate for total ALDH) was resuspended in homogenizing buffer and treated with 0.25% Triton X-100 for 30 min at 4°C. The solubilized preparations were centrifuged at 48,000 g for 30 min and the supernatants were drawn off for ALDH determinations.
ALDH activity was measured by monitoring the reduction of NAD or NADp for 5-6 min at […] at 37°C in DU70 spectrophotometer (Beckman). The assay mixture contained 50 mM potassium phosphate buffer, pH 7.4, 2.0 mM NAD (or NADP) and 1.0 mM EDTA. The reaction was started by adding the substrate (SDA or other aldehyde) to the prewarmed (5 min at 37°C) assay mixture containing enzyme preparation. Pyrazole (0.1 mM) was added particularly for liver enzyme, to inhibit alcohol dehydrogenase. The apparent Km and maximum velocity (Vmax) values were calculated using a Lineweaver-Burk plot based on the estimation of the slope by regression analysis. Enzyme activity was expressed as mU (nmoles/min) per mg of protein. Protein contents were determined by the Bradford method, using bovine serum albumin as the standard. […]

cytosolic ALDH = assay: NAD-linked cytosolic ALDH assay, L1210/CPA cells; assay type: biochemical, Murine
Description: as §1
(§2) ALDH activity was measured by monitoring the reduction of NAD or NADp for 5-6 min at […] at 37°C in DU70 spectrophotometer (Beckman). The assay mixture contained 50 mM potassium phosphate buffer, pH 7.4, 2.0 mM NAD (or NADP) and 1.0 mM EDTA. The reaction was started by adding the substrate (SDA or other aldehyde) to the prewarmed (5 min at 37°C) assay mixture containing enzyme preparation. Pyrazole (0.1 mM) was added particularly for liver enzyme, to inhibit alcohol dehydrogenase. The apparent Km and maximum velocity (Vmax) values were calculated using a Lineweaver-Burk plot based on the estimation of the slope by regression analysis. Enzyme activity was expressed as mU (nmoles/min) per mg of protein. Protein contents were determined by the Bradford method, using bovine serum albumin as the standard.

[4] = test system: tumor cells and hemopoietic progenitor cells; assay: Cytotoxicity of ALDH inhibitors ex vivo; assay type: cell-based; conditions: at concentrations much lower than needed for complete inhibition of ALDH
Excerpt: Both disulfiram and acrolein were very toxic to tumor cells and hemopoietic progenitor cells ex vivo at concentrations much lower than that needed for complete inhibition of ALDH. […] Therefore, in subsequent experiments, DEAB was chosen to study the survival of leukemic cells and myeloid progenitor cells after treatment with SDA.

Ornithine decarboxylase = Ornithine decarboxylase (Mus musculus, UniProt P00860); assay: Ornithine decarboxylase inhibition; assay type: biochemical; conditions: Figure 10
Description: The figure illustrates the comparative profile of the inhibition of key regulatory enzymes of polyamine synthesis by SDA, its analogue, butyl dialdehyde (BDA), difluoromethyl orinithine (DFMO) and methyl glyoxal bis (guanylhydrazone) (MGBG).

[5] = test system: Cytosolic ALDH in mouse liver; assay: NAD-linked cytosolic ALDH assay, mouse liver; assay type: biochemical; conditions: as substrate, mouse liver cytosol
Description: as §1, §2

Sequence of Ornithine decarboxylase (P00860 whole entry): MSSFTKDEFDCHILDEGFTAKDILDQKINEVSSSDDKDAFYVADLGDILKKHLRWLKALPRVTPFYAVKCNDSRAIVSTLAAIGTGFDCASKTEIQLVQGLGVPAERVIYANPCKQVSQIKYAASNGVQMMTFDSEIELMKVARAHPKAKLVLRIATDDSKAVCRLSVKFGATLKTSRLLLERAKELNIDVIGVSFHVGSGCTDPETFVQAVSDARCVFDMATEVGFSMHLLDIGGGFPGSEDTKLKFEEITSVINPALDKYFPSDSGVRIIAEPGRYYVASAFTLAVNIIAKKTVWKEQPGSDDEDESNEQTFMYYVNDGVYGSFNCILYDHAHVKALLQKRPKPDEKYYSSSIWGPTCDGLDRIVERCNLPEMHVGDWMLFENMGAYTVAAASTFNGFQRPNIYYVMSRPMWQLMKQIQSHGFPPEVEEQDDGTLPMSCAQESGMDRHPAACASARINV

alkylation [1]: nonspecific alkylating agents
SMILES: CC(=O)CCNCCCCNCCC(C)=O [ANALOGUE # 3]

alkylation [1]: nonspecific alkylating agents
SMILES: Nc1ncnc2c1nc(Sc1cc3c(cc1Br)OCO3)n2CCc1ccccc1Cl [ANALOGUE # 4]

inhibition of AdoMet DC (in words) [2]: compensatory increase in AdoMetDC
inhibition of ODC (in words) (Ornithine decarboxylase): inhibited ODC with high potency
SMILES: NCCCC(N)(C(=O)O)C(F)F (stereo not drawn) [DFMO, difluoromethyl orinithine, reference compound]

More lines, now with the values behind:

SMILES: O=CCCCNCCCCNCCCC=O [ANALOGUE # 7, butyl dialdehyde]
inhibition of AdoMet DC (in words) [2]: selectively inhibited adenosylmethionine decarboxylase
IC50 ([2]; Figure 9, inhibition curves superimposable, read-out: IC₅₀ values): 120 to 130 µM
potency in proliferation assays compared with SDA (splenic T cell; Fig. 8): less potent than SDA
fold less potent than SDA (splenic T cell; Figure 8): 30 fold

SMILES: C=CC=O [Acrolein]
IC50 [3]: 50 to 100 µM
IC50 (cytosolic ALDH; SDA (1.0 mM) as substrate, pretreated with inhibitor 5 min at 37°C, read-out: Inhibition (IC₅₀)): 2500 ± 630 nM
toxicity to tumor cells and hemopoietic progenitor cells ex vivo [4]: very toxic

SMILES: CCN(CC)C(=S)SSC(=S)N(CC)CC [Disulfiram]
toxicity to tumor cells and hemopoietic progenitor cells ex vivo [4]: very toxic

SMILES: CC(C=NNC(=N)N)=NNC(=N)N [MGBG, methyl glyoxal bis (guanylhydrazone), reference compound]
inhibition of AdoMet DC (in words) [2]: inhibited AdoMetDC; also recorded: selectively reduced AdoMet IC activity

SMILES: CCC=O [Propionaldehyde]
Km ([5]; NAD, ± SEM, 3-4 experiments): 14 ± 2.8 µM
Specific (activity of ALDH) ([5]; propionaldehyde 1.0 mM): 22.5 ± 3.9 mU/mg Protein
Km (cytosolic ALDH; as substrate, L1210/CPA cytosol, NAD, ± SEM, 3-4 experiments): 26.5 ± 4.9 µM
Specific (activity of ALDH) (cytosolic ALDH; as substrate, L1210/CPA cytosol, propionaldehyde 1.0 mM): 10.5 ± 3.2 mU/mg Protein

SMILES: c1cn[nH]c1 [Pyrazole]
effect on L1210/CPA cytosolic enzyme (cytosolic ALDH; SDA as the substrate, data not shown): had no effect
